Source: ChEMBL document CHEMBL1131585, “Novel orally active growth hormone secretagogues” (J Med Chem, 1998)
Where a SMILES comes first, the peptide text is derived from it. [ ]: non-standard residue; d: D form. d2Nal = N[C@H](Cc1ccc2ccccc2c1)C(=O)O; Aib = CC(C)(N)C(=O)O

Experiments:
[1] = target: Growth hormone secretagogue receptor type 1 (Rattus norvegicus) (UniProt O08725); assay: (§1) Tested for GH-releasing property using classical rat pituitary cell assay; assay type: functional, cell-based; details: Pituitary gland cell
Sequence of Growth hormone secretagogue receptor type 1 (Rattus norvegicus) (O08725 whole entry): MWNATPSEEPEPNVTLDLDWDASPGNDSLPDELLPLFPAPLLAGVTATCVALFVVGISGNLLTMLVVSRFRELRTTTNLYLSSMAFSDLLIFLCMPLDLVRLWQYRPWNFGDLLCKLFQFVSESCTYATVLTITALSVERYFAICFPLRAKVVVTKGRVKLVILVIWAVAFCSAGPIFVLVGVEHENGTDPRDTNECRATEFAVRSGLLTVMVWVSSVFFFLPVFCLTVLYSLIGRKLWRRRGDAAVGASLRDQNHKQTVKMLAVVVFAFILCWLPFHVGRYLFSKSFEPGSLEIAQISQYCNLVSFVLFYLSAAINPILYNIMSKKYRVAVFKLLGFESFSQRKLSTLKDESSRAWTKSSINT

[2] = target: Growth hormone secretagogue receptor type 1 (Rattus norvegicus, UniProt O08725); assay: as §1; assay type: functional, cell-based, Pituitary gland cell
Sequence of Growth hormone secretagogue receptor type 1 (O08725 whole entry): as above

[3] = Oral bioavailability in dog (Beagle); assay type: ADME, organism-based, Canis lupus familiaris; details: in vivo; for bioavailability: beagle
Sus scrofa [4] = assay: Tested for in vivo activity against GH release after iv administration in swine
Sus scrofa [5] = assay: Compound was tested for potency against GH release iv administration in swine; assay type: functional
Sus scrofa [6] = assay: Compound was tested for efficacy against GH release iv administration in swine; assay type: functional
Canis familiaris [7] = assay: Compound was tested Growth Hormone(GH) release after 0.5 mg/kg administration (Po) in Beagle dogs; assay type: functional, organism-based; design: dose 0.5 mg/kg; details: Canis lupus familiaris
Canis familiaris [8] = assay: Compound was tested Growth Hormone(GH) release after 10 mg/kg administration (Po) in Beagle dogs; assay type: functional, organism-based; design: dose 10 mg/kg; details: Canis lupus familiaris
Canis familiaris [9] = assay: Compound was tested Growth Hormone(GH) release after 2.5 mg/kg administration (Po) in Beagle dogs; assay type: functional, organism-based; design: dose 2.5 mg/kg; details: Canis lupus familiaris
[10] = Compound was tested for maximum blood concentration after 0.5 mg/kg administration (Po) in Beagle dogs; nM/L maximum blood concentration; assay type: ADME, organism-based, Canis lupus familiaris; design: route oral, dose 0.5 mg/kg; details: dog
[11] = Compound was tested for maximum blood concentration after 10 mg/kg administration (Po) in Beagle dogs; nM/L maximum blood concentration; assay type: ADME, organism-based, Canis lupus familiaris; design: route oral, dose 10 mg/kg; details: dog
[12] = Compound was tested for maximum blood concentration after 2.5 mg/kg administration (Po) in Beagle dogs; nM/L maximum blood concentration; assay type: ADME, organism-based, Canis lupus familiaris; design: route oral, dose 2.5 mg/kg; details: dog
[13] = Compound was tested for oral bioavailability after 0.5 mg/kg administration (Po) in Beagle dogs; fpo % Oral Bioavailability; assay type: ADME, organism-based, Canis lupus familiaris; details: dog, in vivo
[14] = Compound was tested for oral bioavailability after 10 mg/kg administration (Po) in Beagle dogs; fpo % Oral Bioavailability; assay type: ADME, organism-based, Canis lupus familiaris; details: dog, in vivo
[15] = Oral bioavailability in dog (Beagle) (dose 2.5 mg/kg); assay type: ADME, organism-based, Canis lupus familiaris; details: in vivo
Rattus norvegicus [16] = organism: Rattus norvegicus; assay: Compound was tested against the effect of D-Lys3-GHRP-6 on the release of growth hormone from pituitary cells in rat; assay type: functional, cell-based; details: Pituitary gland cell
Rattus norvegicus [17] = organism: Rattus norvegicus; assay: Compound was tested against the effect of L-692400 on the release of growth hormone from pituitary cells in rat; assay type: functional, cell-based; details: Pituitary gland cell
Rattus norvegicus [18] = organism: Rattus norvegicus; assay: Compound was tested against the effect of N-acetyl-Tyr-D-Arg(1-29)GHRH-NH2 on the release of growth hormone from pituitary cells in rat; assay type: functional, cell-based; details: Pituitary gland cell
Rattus norvegicus [19] = organism: Rattus norvegicus; assay: Compound was tested against the effect of substance P antagonist on the release of growth hormone from pituitary cells in rat; assay type: functional, cell-based; details: Pituitary gland cell
[20] = Compound was tested for oral bioavailability after 10 mg/kg administration (Po) in Beagle dogs; F % Oral Bioavailability; assay type: ADME, organism-based, Canis lupus familiaris; details: dog, in vivo
[21] = Compound was tested for maximum concentration in blood after 10 mg/kg administration (Po) in Beagle dogs; nmol/L maximum blood concentration; details: dog
[22] = Compound was tested for maximum concentration in blood after 2.5 mg/kg administration (Po) in Beagle dogs; nmol/L maximum blood concentration; details: dog
Sus scrofa [23] = assay: Compound was tested for potency against GH release upon iv administration in swine; assay type: functional
Sus scrofa [24] = assay: Compound was tested for efficacy against GH release upon iv administration in swine; assay type: functional

SMILES	Emax [1] [%]	EC50 [2] [nM]	bioavailability [3] [%]	Cmax [GH] (Sus scrofa [4]) [ng/mL]	other results
CN(C(=O)/C=C/CC(C)(C)N)[C@H](Cc1cccc2ccccc12)C(=O)N(C)[C@H](Cc1ccccc1)C(=O)NCC1CCCO1 (stereo partly drawn)	110	21			
CNC(=O)[C@@H](Cc1cccs1)N(C)C(=O)[C@@H](Cc1ccc2ccccc2c1)N(C)C(=O)/C=C/CC(C)(C)N	110	2	15	55	
CCNC(=O)[C@@H](Cc1ccccc1)N(C)C(=O)[C@@H](Cc1ccc2ccccc2c1)N(C)C(=O)/C=C/CC(C)(C)N	105	13	14		
C[C@H](O)CNC(=O)[C@@H](Cc1cccs1)N(C)C(=O)[C@@H](Cc1ccc2ccccc2c1)N(C)C(=O)/C=C/CC(C)(C)N	120	45			
CNC(=O)[C@@H](Cc1ccccc1)N(C)C(=O)[C@@H](Cc1ccc2ccccc2c1)N(C)C(=O)/C=C/CC(C)(C)N [TABIMORELIN]	110	18			
CNC(=O)[C@@H](Cc1ccccc1)N(C)C(=O)[C@@H](COCc1ccccc1)N(C)C(=O)/C=C/CC(C)(C)N	125	5	11	0.4	
CNC(=O)[C@@H](Cc1ccccc1)N(C)C(=O)[C@@H](Cc1cccc2ccccc12)N(C)C(=O)/C=C/CC(C)(C)N	115	24		12	
CNC(=O)[C@@H](Cc1ccccc1)N(C)C(=O)[C@@H](Cc1ccc(-c2ccccc2)cc1)N(C)C(=O)/C=C/CC(C)(C)N	120	3	0		
CN(C(=O)/C=C/CC(C)(C)N)[C@H](Cc1ccc2ccccc2c1)C(=O)N(C)[C@H](Cc1ccccc1)C(=O)NCC1CCCO1 (stereo partly drawn)	100	16	17	9	
CC(C)(N)C(=O)N[C@@H](Cc1c[nH]cn1)C(=O)N[C@H](Cc1ccc2ccccc2c1)C(=O)N[C@H](Cc1ccccc1)C(=O)N[C@@H](CCCCN)C(N)=O [IPAMORELIN] (H-[Aib]H[d2Nal][dF]K-NH2)					ED50 (Sus scrofa [5]): 0.0023 µmol/kg; Emax (Sus scrofa [6]): 65 ng/mL
CNC(=O)[C@@H](Cc1ccc(F)cc1)N(C)C(=O)[C@@H](Cc1ccc2ccccc2c1)N(C)C(=O)/C=C/CC(C)(C)N	90	8	49	30	Cmax [GH] (Canis familiaris [7]): 2.7 ng/mL; Cmax [GH] (Canis familiaris [8]): 12 ng/mL; Cmax [GH] (Canis familiaris [9]): 4.5 ng/mL; Cmax [10]: 99 nM; Cmax [11]: 3030 nM; Cmax [12]: 247 nM; bioavailability [13]: 53%; bioavailability [14]: 138%; bioavailability [15]: 55%; IC50 (Rattus norvegicus [16]): 9000 nM; IC50 (Rattus norvegicus [17]): 14000 nM; IC50 (Rattus norvegicus [18]): > 10000 nM; IC50 (Rattus norvegicus [19]): 49 nM; ED50 (Sus scrofa [5]): 0.129 µmol/kg; Emax (Sus scrofa [6]): 86 ng/mL
C[C@@H](O)CNC(=O)[C@@H](Cc1ccccc1)N(C)C(=O)[C@@H](Cc1ccc2ccccc2c1)N(C)C(=O)/C=C/CC(C)(C)N (stereo in doubt; 7o) [listing 1 of 2 here]		9			F [3]: 0%
C[C@@H](O)CNC(=O)[C@@H](Cc1ccccc1)N(C)C(=O)[C@@H](Cc1ccc2ccccc2c1)N(C)C(=O)/C=C/CC(C)(C)N (stereo in doubt; 7b) [listing 1 of 2 here]	130			26	Cmax [GH] (Canis familiaris [7]): 1.8 ng/mL; Cmax [GH] (Canis familiaris [8]): 42.5 ng/mL; Cmax [GH] (Canis familiaris [9]): 6.6 ng/mL
C[C@@H](O)CNC(=O)[C@@H](Cc1ccccc1)N(C)C(=O)[C@@H](Cc1ccc2ccccc2c1)N(C)C(=O)/C=C/CC(C)(C)N (stereo in doubt; 7b) [listing 2 of 2 here]		8.9			bioavailability [20]: 41%; bioavailability [15]: 21%; F [3]: 25%; IC50 (Rattus norvegicus [16]): 8000 nM; IC50 (Rattus norvegicus [17]): 11000 nM; IC50 (Rattus norvegicus [18]): > 10000 nM; IC50 (Rattus norvegicus [19]): 140 nM; ED50 (Sus scrofa [5]): 0.031 µmol/kg; Emax (Sus scrofa [6]): 96 ng/mL; Cmax [21]: 2320 nM; Cmax [22]: 260 nM
C[C@H](NC(=O)C(Cc1c[nH]c2ccccc12)NC(=O)[C@@H](N)Cc1c[nH]cn1)C(=O)N[C@@H](Cc1c[nH]c2ccccc12)C(=O)NC(Cc1ccccc1)C(=O)N[C@@H](CCCCN)C(N)=O (single isomer, unassigned)	100				IC50 (Rattus norvegicus [16]): 8000 nM; IC50 (Rattus norvegicus [17]): 10000 nM; IC50 (Rattus norvegicus [18]): > 10000 nM; IC50 (Rattus norvegicus [19]): 38 nM; ED50 (Sus scrofa [23]): 0.0039 µmol/kg; Emax (Sus scrofa [24]): 74 ng/mL
CNC(=O)[C@@H](Cc1ccccc1)N(C)C(=O)[C@@H](Cc1csc2ccccc12)N(C)C(=O)/C=C/CC(C)(C)N	80	35			
C[C@H](O)CNC(=O)[C@@H](Cc1ccc(F)c(F)c1)N(C)C(=O)[C@@H](Cc1ccc2ccccc2c1)N(C)C(=O)/C=C/CC(C)(C)N	100	5		5	
CN(C(=O)/C=C/CC(C)(C)N)[C@H](Cc1ccc2ccccc2c1)C(=O)N(C)[C@H](Cc1ccccc1)C(=O)NCC1CC1	105	1.8	24	14	
CNC(=O)[C@@H](Cc1ccc(I)cc1)N(C)C(=O)[C@@H](Cc1ccc2ccccc2c1)N(C)C(=O)/C=C/CC(C)(C)N	110	20	26	0.4	
C[C@@H](O)CNC(=O)[C@@H](Cc1ccccc1)N(C)C(=O)[C@@H](Cc1ccc2ccccc2c1)N(C)C(=O)/C=C/CC(C)(C)N (stereo in doubt; 7o) [listing 2 of 2 here]	105			9	
CNC(=O)[C@@H](Cc1ccc(F)c(F)c1)N(C)C(=O)[C@@H](Cc1ccc2ccccc2c1)N(C)C(=O)/C=C/CC(C)(C)N	85	17	54	6	
